Test results: patent US20230028441A1, “NOVEL HETEROARYL-TRIAZOLE COMPOUNDS AS PESTICIDES” (Bayer Aktiengesellschaft, priority 2019, published 2023)

Legend:
Assay type in all cases: in vivo
[1] = system: larvae of the southern green stink bug (Nezara viridula); assay: Nezara viridula spray test; details: in Hordeum vulgare, 96 h
Method: (§1) Solvent: 78.0 parts by weight of acetone • • 1.5 parts by weight of dimethylformamide
(§2) Emulsifier: alkylarylpolyglycol ether
(§3) To produce a suitable preparation of active compound, 1 part by weight of active compound is mixed with the stated amount of solvent, and the concentrate is diluted with water, containing an emulsifier concentration of 1000 ppm, to the desired concentration. Further test concentrations are prepared by dilution with emulsifier containing water.
Barley plants (Hordeum vulgare) infested with larvae of the southern green stink bug (Nezara viridula) are sprayed with a test solution containing the desired concentration of the active ingredient.
After 4 days mortality in % is determined. 100% means all the stink bugs have been killed; 0% means none of the stink bugs have been killed.

[2] = system: adult engorged female ticks (Rhipicephalus microplus); assay: Rhipicephalus (Boophilus) microplus injection test; details: 168 h, egg deposition after 7 days, read-out: efficacy (infertile eggs); for pest or weed control at 0.02 mg: 20 μg/animal; for pest or weed control at 0.004 mg: 4 μg/animal
Method: Solvent: dimethyl sulfoxide
To produce a suitable preparation of active compound, 10 mg of active compound are dissolved in 0.5 mL solvent, and the concentrate is diluted with solvent to the desired concentration.
Five adult engorged female ticks (Rhipicephalus microplus) are injected with 1 μL compound solution into the abdomen. The ticks are transferred into replica plates and incubated in a climate chamber.
After 7 days egg deposition of fertile eggs is monitored. Eggs where fertility is not visible are stored in a climate chamber till hatching after about 42 days. An efficacy of 100% means all eggs are infertile; 0% means all eggs are fertile.

[3] = system: fall armyworm larvae (Spodoptera frugiperda); assay: Spodoptera frugiperda spray test (maize leaf sections); details: 168 h
Method: Solvent: 78.0 parts by weight acetone • 1.5 parts by weight dimethylformamide
as §2
as §3, with “solvents” for “solvent,”, “and” for “and the concentrate”
Maize (Zea mays) leaf sections are sprayed with a preparation of the active ingredient of the desired concentration. Once dry, the leaf sections are infested with fall armyworm larvae (Spodoptera frugiperda).
After 7 days mortality in % is determined. 100% means all caterpillars have been killed and 0% means none of the caterpillars have been killed.

[4] = system: larvae of the banded cucumber beetle (Diabrotica balteata); assay: Diabrotica balteata spray test; details: 168 h, after 7 days, wheat seeds, read-out: efficacy (seedlings grown up); for pest or weed control at 32 µg/disc, 100 g/ha: 100 g/ha (=32 μg/well); for pest or weed control at 160 µg/disc, 500 g/ha: 500 g/ha (=160 μg/well)
Method: as §1, §2, §3
Soaked wheat seeds (Triticum aestivum) are placed in a multiple well plate filled with agar and some water and are incubated for 1 day to germinate (5 seeds per well). The germinated wheat seeds are sprayed with a test solution containing the desired concentration of the active ingredient. Afterwards each unit is infected with 10-20 larvae of the banded cucumber beetle (Diabrotica balteata).
After 7 days efficacy in % is determined. 100% means all the seedlings have grown up like in the untreated, uninfected control; 0% means none of the seedlings have grown.

Structure (SMILES) | mortality at 100 g/ha [3] [%] | mortality at 500 g/ha [1] [%] | pest or weed control at 32 µg/disc, 100 g/ha [4] [%] | further results
CC(NC(=O)c1cc(Cl)cc(S(C)(=O)=O)c1)c1nc(Cc2ccccc2)nn1-c1ncccn1 (stereo not shown) [I-084] |  |  |  | mortality at 100 g/ha [1]: 90%
CC(NC(=O)c1cc(Cl)cc(C(F)(F)F)c1)c1nc(SCC(F)(F)F)nn1-c1ccc(Cl)cn1 (stereo not shown) [I-067] |  |  |  | pest or weed control at 0.02 mg [2]: 100%
CNc1nc([C@H](C)NC(=O)c2cc(OC(F)(F)F)cc(C3CC3)c2)n(-c2ncc(C#N)s2)n1 [I-206] | 100 |  |  | 
CC(NC(=O)c1cc(OC(F)(F)F)cc(C2CC2)c1)c1nc(N2CCCCC2)nn1-c1ncccn1 (stereo not shown) [I-196] |  | 90 |  | 
CC(NC(=O)c1cc(OC(F)(F)F)cc(C2CC2)c1)c1nc(N(C)C)nn1-c1ccc(C#N)cn1 (stereo not shown) [I-164] | 100 | 100 | 100 | 
CSc1nc(C(C)NC(=O)c2cc(OC(F)(F)F)cc(S(C)(=O)=O)c2)n(-c2ncc(C#N)s2)n1 (stereo not shown) [I-167, N-{1-[1-(5-cyano-1,3-thiazol-2-yl)-3-(methylsulfanyl)-1H-1,2,4-triazol-5-yl]ethyl}-3-(methylsulfonyl)-5-(trifluoromethoxy)benzamide] | 100 | 100 | 100 | 
CNc1nc([C@H](C)NC(=O)c2cc(Br)cc(Br)c2)n(-c2ncc(C#N)s2)n1 [I-210] | 100 |  |  | 
CC(NC(=O)c1cc(OC(F)(F)F)cc(C2CC2)c1)c1nc(N(C)C)nn1-c1ncc(Cl)cn1 (stereo not shown) [I-166] | 100 | 100 | 100 | 
CNc1nc([C@H](C)NC(=O)c2cc(Br)cc(OC(F)(F)F)c2)n(-c2ncc(C#N)s2)n1 [I-209] | 100 |  |  | 
CC(NC(=O)c1cc(Cl)cc(S(C)(=O)=O)c1)c1nc(N(C)C)nn1-c1ccc(C#N)cn1 (stereo not shown) [I-157] |  | 90 |  | 
CC(NC(=O)c1cc(Cl)cc(S(C)(=O)=O)c1)c1nc(SCC(F)(F)F)nn1-c1ccc(Cl)cn1 (stereo not shown) [I-065] |  |  |  | pest or weed control at 0.004 mg [2]: 100%; pest or weed control at 0.02 mg [2]: 100%
C[C@H](NC(=O)c1cc(C(F)(F)F)cc(C(F)(F)F)c1)c1nc(N2CCCC2)nn1-c1ncccn1 [I-190] | 100 | 100 | 100 | 
C[C@H](NC(=O)c1cc(C(F)(F)F)cc(C(F)(F)F)c1)c1nc(N2CCOCC2)nn1-c1ncc(C#N)s1 [I-199] |  |  | 100 | 
CCS(=O)(=O)c1cc(OC(F)(F)F)cc(C(=O)NC(C)c2nc(N(C)C)nn2-c2ncc(Cl)cn2)c1 (stereo not shown) [I-194] | 100 | 100 | 100 | 
CNc1nc([C@H](C)NC(=O)c2cc(OC(F)(F)F)cc(S(C)(=O)=O)c2)n(-c2ncc(C#N)s2)n1 [I-212] | 100 |  |  | 
CC(NC(=O)c1cc(Cl)cc(C(F)(F)F)c1)c1nc(-c2ccc(Cl)nc2)nn1-c1ncccn1 (stereo not shown) [I-043] |  |  |  | pest or weed control at 0.004 mg [2]: 80%
CC(NC(=O)c1cc(Cl)cc(S(C)(=O)=O)c1)c1nc(-c2ncccn2)nn1-c1ncccn1 (stereo not shown) [I-052] |  |  |  | pest or weed control at 0.004 mg [2]: 100%; pest or weed control at 0.02 mg [2]: 100%
CC(NC(=O)c1cc(C(F)(F)F)cc(C(F)(F)F)c1)c1nc(N(C)C)nn1-c1ccc(C#N)cn1 (stereo not shown) [I-162] | 100 | 100 | 100 | 
CC(NC(=O)c1cc(C(F)(F)F)cc(C(F)(F)F)c1)c1nc(Cc2c(F)cccc2F)nn1-c1ncccn1 (stereo not shown) [I-086] |  |  | 100 | 

Structure (SMILES) | mortality at 100 g/ha [3] [%] | mortality at 500 g/ha [1] [%] | pest or weed control at 32 µg/disc, 100 g/ha [4] [%] | further results
CC(NC(=O)c1cc(Cl)cc(S(C)(=O)=O)c1)c1nc(NC(=O)OC(C)(C)C)nn1-c1ccc(Cl)cn1 (stereo not shown) [I-002] |  |  |  | pest or weed control at 0.004 mg [2]: 100%; pest or weed control at 0.02 mg [2]: 100%
CNc1nc([C@H](C)NC(=O)c2cc(C(F)(F)F)cc(C(F)(F)F)c2)n(-c2ncc(C#N)s2)n1 [I-208] | 100 |  |  | 
CC(NC(=O)c1cc(Cl)cc(C(C)(C)C#N)c1)c1nc(N(C)C)nn1-c1ccc(C#N)cn1 (stereo not shown) [I-156] | 100 | 100 | 100 | 
CC(NC(=O)c1cc(Br)cc(Br)c1)c1nc(NC(=O)OC(C)(C)C)nn1-c1ccc(C#N)cn1 (stereo not shown) [I-098] |  |  |  | pest or weed control at 0.004 mg [2]: 100%
C[C@H](NC(=O)c1cc(OC(F)(F)F)cc(C2CC2)c1)c1nc(N2CCOCC2)nn1-c1ncc(C#N)s1 [I-197] |  |  | 100 | 
CC(NC(=O)c1cc(Cl)cc(C(F)(F)F)c1)c1nc(NC(=O)OC(C)(C)C)nn1-c1ncccn1 (racemic) [I-001, tert-butyl N-[5-[1-[[3-chloro-5-(trifluoromethyl)benzoyl]amino]ethyl]-1-pyrimidin-2-yl-1,2,4-triazol-3-yl]carbamate] |  |  |  | pest or weed control at 160 µg/disc, 500 g/ha [4]: 100%; pest or weed control at 0.004 mg [2]: 100%; pest or weed control at 0.02 mg [2]: 100%; mortality at 500 g/ha [3]: 100%
CC(NC(=O)c1cc(C(F)(F)F)cc(C(F)(F)F)c1)c1nc(NC(=O)OC(C)(C)C)nn1-c1ccc(C#N)cn1 (stereo not shown) [I-096] |  |  |  | pest or weed control at 0.004 mg [2]: 100%
CC(NC(=O)c1cc(Br)cc(C(F)(F)F)c1)c1nc(NC(=O)OC(C)(C)C)nn1-c1ccc(C#N)cn1 (stereo not shown) [I-102] |  |  |  | pest or weed control at 0.004 mg [2]: 100%
CON(C)c1nc([C@H](C)NC(=O)c2cc(Br)cc(Br)c2)n(-c2ncccn2)n1 [I-150] | 100 |  | 100 | 
CC(NC(=O)c1cc(OC(F)(F)F)cc(S(=O)(=O)C2CC2)c1)c1nc(N(C)C)nn1-c1ncc(Cl)cn1 (stereo not shown) [I-193] | 100 | 100 | 100 | 
CC(NC(=O)c1cc(Cl)cc(C(F)(F)F)c1)c1nc([S+]([O-])CC(F)(F)F)nn1-c1ccc(Cl)cn1 (stereo not shown) [I-068] |  |  |  | pest or weed control at 0.004 mg [2]: 80%; pest or weed control at 0.02 mg [2]: 100%
CC(NC(=O)c1cc(Cl)cc(S(C)(=O)=O)c1)c1nc(N(S(C)(=O)=O)S(C)(=O)=O)nn1-c1ccc(Cl)cn1 (racemic) [I-026, N-[1-[5-[bis(methylsulfonyl)amino]-2-(5-chloro-2-pyridyl)-1,2,4-triazol-3-yl]ethyl]-3-chloro-5-methylsulfonyl-benzamide] |  | 90 |  | pest or weed control at 160 µg/disc, 500 g/ha [4]: 100%; pest or weed control at 0.004 mg [2]: 100%; pest or weed control at 0.02 mg [2]: 100%
CC(NC(=O)c1cc(OC(F)(F)F)cc(S(=O)(=O)C(C)C)c1)c1nc(N(C)C)nn1-c1ncc(Cl)cn1 (stereo not shown) [I-191] |  | 90 | 100 | 
CC(NC(=O)c1cc(Cl)cc(S(C)(=O)=O)c1)c1nc(N2CCCCC2)nn1-c1ncccn1 (stereo not shown) [I-198] |  |  | 80 | 
CC(NC(=O)c1cc(Cl)cc(S(C)(=O)=O)c1)c1nc(N(C)C)nn1-c1ncc(Cl)cn1 (stereo not shown) [I-171] | 100 | 100 |  | 
C[C@H](NC(=O)c1cc(OC(F)(F)F)cc(C2CC2)c1)c1nc(N2CCCC2)nn1-c1ncccn1 [I-203] | 100 | 100 | 100 | 
C[C@H](NC(=O)c1cc(Br)cc(C(F)(F)F)c1)c1nc(N)nn1-c1ccc(C#N)cn1 [I-172] | 100 |  | 100 | 
C[C@H](NC(=O)c1cc(Cl)cc(C(C)(C)C#N)c1)c1nc(N2CCOCC2)nn1-c1ccc(C#N)cn1 [I-204] | 100 | 100 |  | 
